Results taken from patent US7803992B2, “Methods and compositions for expressing an herbicide-tolerant polynucleotide” (Pioneer Hi-Bred International, Inc., priority 2005, dated 2010).

Key:
[1] = system: parent elite stiff stalk inbred corn; assay: Postemergence herbicide application in greenhouse: fresh shoot weight and visual injury; assay type: in vivo; conditions: postemergence, 200 g/ha (glyphosate 3472 g ae/ha, glufosinate ammonium 1870 g/ha), mean of four replications; for % Visual Injury / pest or weed control at 200 g/ha: 0% no injury, 100% plant death; for Fresh Weight: weighed 2 weeks after treatment, untreated 76.4 g; for pest or weed control at 200 g/ha: Zea mays, post-emergence, read-out: % Visual Injury
[2] = system: Heterozygous GAT-HRA corn; assay: Preemergence herbicide application in greenhouse: fresh shoot weight and visual injury; assay type: in vivo; conditions: preemergence, 200 g/ha, mean of four replications; for % Visual Injury / pest or weed control at 200 g/ha: 0% no injury, 100% plant death; for Fresh Weight: fresh shoots weighed 4 weeks after treatment, untreated 47.0 g; for pest or weed control at 200 g/ha: Zea mays, pre-emergence, 672 h, read-out: % Visual Injury
[3] = system: parent elite stiff stalk inbred corn; assay: as above; assay type: in vivo; conditions: preemergence, 200 g/ha, mean of four replications; for % Visual Injury / pest or weed control at 200 g/ha: 0% no injury, 100% plant death; for Fresh Weight: fresh shoots weighed 4 weeks after treatment, untreated 36.7 g; for pest or weed control at 200 g/ha: Zea mays, pre-emergence, 672 h, read-out: % Visual Injury
[4] = system: Heterozygous GAT-HRA corn; assay: Postemergence herbicide application in greenhouse: fresh shoot weight and visual injury; assay type: in vivo; conditions: postemergence, 200 g/ha (glyphosate 3472 g ae/ha, glufosinate ammonium 1870 g/ha), mean of four replications; for % Visual Injury / pest or weed control at 200 g/ha: 0% no injury, 100% plant death; for Fresh Weight: weighed 2 weeks after treatment, untreated 98.8 g; for pest or weed control at 200 g/ha: Zea mays, post-emergence, read-out: % Visual Injury
GAT-HRA soybeans = assay: Postemergence herbicide treatment of soybeans in greenhouse, visual injury; assay type: in vivo, soybean; conditions: for % Visual Injury: postemergence, glyphosate 8960, tribenuron-methyl 35, rimsulfuron 35 g/ha
Protocol: (§1) Young regenerated transgenic plants were sprayed with 1× glyphosate (1× rate of glyphosate is 1120 g/ha of glyphosate isopropylamine) to cull segregants. Four replications were performed for each treatment. Plants were then treated with various herbicides, including glyphosate and ALS-inhibitor herbicides.
(§2) Six soybean seeds from each variety to be assayed were planted 1 cm deep in 5.5 (13.97 cm) inch square plastic container of a synthetic growth medium. […] When possible, containers were thinned to two uniform plants. Non-transgenic lines were thinned to two uniform plants per container.
(§3) Results are expressed below in Table 11 as the mean of four replications.

[5] = system: Wild Type soybeans (Jack); assay: as above; assay type: in vivo, soybean; conditions: for % Visual Injury: postemergence, glyphosate 8960, tribenuron-methyl 35, rimsulfuron 35 g/ha
Protocol: as §1, §2, §3

STS ® soybeans = assay: as above; assay type: in vivo, soybean
Source text: When possible, containers were thinned to two uniform plants.

COC(=O)c1ccc(C(F)(F)F)nc1S(=O)(=O)NC(=O)Nc1nc(OC)cc(OC)n1 [Flupyrsulfuron-methyl Na^+, Flupyrsulfuron-methyl]
% Visual Injury [1]: 95% | Fresh Weight [1]: 5.2 g | % Visual Injury [2]: 90% | Fresh Weight [2]: 45.8 g | % Visual Injury [3]: 87% | Fresh Weight [3]: 23.6 g | % Visual Injury [4]: 4% | Fresh Weight [4]: 95.5 g

COc1cc(OC)nc(NC(=O)NS(=O)(=O)N(C)S(C)(=O)=O)n1 [Amidosulfuron]
pest or weed control at 200 g/ha [1]: 71% | Fresh Weight [1]: 32.0 g | pest or weed control at 200 g/ha [2]: 25% | Fresh Weight [2]: 47.7 g | pest or weed control at 200 g/ha [3]: 97% | Fresh Weight [3]: 14.2 g | pest or weed control at 200 g/ha [4]: 8% | Fresh Weight [4]: 107.4 g

COc1cc(OC)nc(Sc2cccc(Cl)c2C(=O)[O-])n1.[Na+] [Pyrithiobac Na^+, Pyrithiobac]
% Visual Injury [1]: 100% | Fresh Weight [1]: 2.8 g | % Visual Injury [2]: 0% | Fresh Weight [2]: 48.6 g | % Visual Injury [3]: 100% | Fresh Weight [3]: 0.0 g | % Visual Injury [4]: 9% | Fresh Weight [4]: 87.9 g

COC(=O)c1cccc(C)c1S(=O)(=O)NC(=O)Nc1nc(OCC(F)(F)F)nc(N(C)C)n1 [Triflusulfuron-methyl]
% Visual Injury [1]: 100% | Fresh Weight [1]: 2.1 g | % Visual Injury [2]: 5% | Fresh Weight [2]: 53.5 g | % Visual Injury [3]: 100% | Fresh Weight [3]: 26.3 g | % Visual Injury [4]: 8% | Fresh Weight [4]: 110.9 g

CCOc1ccccc1OS(=O)(=O)NC(=O)Nc1nc(OC)cc(OC)n1 [Ethoxysulfuron]
pest or weed control at 200 g/ha [1]: 88% | Fresh Weight [1]: 24.3 g | pest or weed control at 200 g/ha [2]: 25% | Fresh Weight [2]: 40.0 g | pest or weed control at 200 g/ha [3]: 63% | Fresh Weight [3]: 28.1 g | pest or weed control at 200 g/ha [4]: 15% | Fresh Weight [4]: 79.3 g

COc1cc(OC)nc(NC(=O)NS(=O)(=O)c2ncccc2C(=O)N(C)C)n1 [Nicosulfuron]
pest or weed control at 200 g/ha [1]: 24% | Fresh Weight [1]: 62.7 g | pest or weed control at 200 g/ha [2]: 0% | Fresh Weight [2]: 50.3 g | pest or weed control at 200 g/ha [3]: 43% | Fresh Weight [3]: 33.6 g | pest or weed control at 200 g/ha [4]: 0% | Fresh Weight [4]: 94.7 g

CCc1cnc(C2=NC(C)(C(C)C)C(=O)N2)c(C(=O)O)c1 (stereo not shown) [Imazethapyr]
pest or weed control at 200 g/ha [1]: 97% | Fresh Weight [1]: 6.4 g | pest or weed control at 200 g/ha [2]: 20% | Fresh Weight [2]: 50.0 g | pest or weed control at 200 g/ha [3]: 69% | Fresh Weight [3]: 24.4 g | pest or weed control at 200 g/ha [4]: 9% | Fresh Weight [4]: 93.4 g

Cc1ccn2nc(S(=O)(=O)Nc3c(F)cccc3F)nc2n1 [Flumetsulam]
pest or weed control at 200 g/ha [1]: 85% | Fresh Weight [1]: 12.8 g | pest or weed control at 200 g/ha [2]: 13% | Fresh Weight [2]: 39.1 g | pest or weed control at 200 g/ha [3]: 13% | Fresh Weight [3]: 24.6 g | pest or weed control at 200 g/ha [4]: 3% | Fresh Weight [4]: 103.8 g

COc1nc(C)nc(NC(=O)NS(=O)(=O)c2ccccc2Cl)n1 [Chlorsulfuron]
pest or weed control at 200 g/ha [1]: 100% | Fresh Weight [1]: 1.7 g | pest or weed control at 200 g/ha [2]: 33% | Fresh Weight [2]: 48.4 g | pest or weed control at 200 g/ha [3]: 100% | Fresh Weight [3]: 0.0 g | pest or weed control at 200 g/ha [4]: 13% | Fresh Weight [4]: 105.2 g

COC(=O)c1ccccc1S(=O)(=O)NC(=O)N(C)c1nc(C)nc(OC)n1 [Tribenuron-methyl]
pest or weed control at 200 g/ha [1]: 100% | Fresh Weight [1]: 1.8 g | pest or weed control at 200 g/ha [2]: 25% | Fresh Weight [2]: 46.8 g | damage from herbicide treatment (GAT-HRA soybeans; 35 g/ha, four replications): no significant damage | % Visual Injury (GAT-HRA soybeans; event 59, mean): 59% | % Visual Injury (GAT-HRA soybeans; event 59 line 21): 58% | % Visual Injury (GAT-HRA soybeans; event 59 line 28): 60% | % Visual Injury (GAT-HRA soybeans; event 60, mean): 55% | % Visual Injury (GAT-HRA soybeans; event 60 line 07): 46% | % Visual Injury (GAT-HRA soybeans; event 60 line 11): 71% | % Visual Injury (GAT-HRA soybeans; event 60 line 22): 45% | % Visual Injury (GAT-HRA soybeans; event 60 line 35): 49% | % Visual Injury (GAT-HRA soybeans; event 60 line 41): 38% | % Visual Injury (GAT-HRA soybeans; event 60 line 46): 49% | % Visual Injury (GAT-HRA soybeans; event 60 line 70): 40% | % Visual Injury (GAT-HRA soybeans; event 60 line 75): 69% | % Visual Injury (GAT-HRA soybeans; event 60 line 77): 56% | % Visual Injury (GAT-HRA soybeans; event 60 line 79): 69% | % Visual Injury (GAT-HRA soybeans; event 60 line 82): 61% | % Visual Injury (GAT-HRA soybeans; event 60 line 84): 71% | % Visual Injury (GAT-HRA soybeans; event 61, mean): 54% | % Visual Injury (GAT-HRA soybeans; event 61 line 02): 41% | % Visual Injury (GAT-HRA soybeans; event 61 line 02B): 40% | % Visual Injury (GAT-HRA soybeans; event 61 line 05): 55% | % Visual Injury (GAT-HRA soybeans; event 61 line 14): 65% | % Visual Injury (GAT-HRA soybeans; event 61 line 18): 69% | % Visual Injury (GAT-HRA soybeans; event 61 line 24): 63% | % Visual Injury (GAT-HRA soybeans; event 61 line 33): 80% | % Visual Injury (GAT-HRA soybeans; event 61 line 34): 76% | % Visual Injury (GAT-HRA soybeans; event 61 line 47): 36% | % Visual Injury (GAT-HRA soybeans; event 61 line 49): 54% | % Visual Injury (GAT-HRA soybeans; event 61 line 51): 60% | % Visual Injury (GAT-HRA soybeans; event 61 line 60): 45% | % Visual Injury (GAT-HRA soybeans; event 61 line 62): 43% | % Visual Injury (GAT-HRA soybeans; event 61 line 99): 34% | % Visual Injury (GAT-HRA soybeans; event 64, mean): 43% | % Visual Injury (GAT-HRA soybeans; event 64 line 41): 55% | % Visual Injury (GAT-HRA soybeans; event 64 line 47): 34% | % Visual Injury ([5]; Wild Type line 82): 97% | % Visual Injury ([5]; Wild Type line Jack): 97% | % Visual Injury ([5]; Wild Type, mean): 97% | damage from herbicide treatment ([5]; herbicide-treated non-transgenic control soybeans, 35 g/ha): killed | % Visual Injury (STS ® soybeans; STS ® line 25, glyphosate 8960, tribenuron-methyl 35, rimsulfuron 35 g/ha): 87% | % Visual Injury (STS ® soybeans; STS ® line 46, glyphosate 8960, tribenuron-methyl 35, rimsulfuron 35 g/ha): 88% | % Visual Injury (STS ® soybeans; STS ®, mean, glyphosate 8960, tribenuron-methyl 35, rimsulfuron 35 g/ha): 87% | pest or weed control at 200 g/ha [3]: 66% | Fresh Weight [3]: 32.1 g | pest or weed control at 200 g/ha [4]: 8% | Fresh Weight [4]: 90.8 g

COc1nc(C)nc(NC(=O)NS(=O)(=O)c2ccccc2OCCCl)n1 [Triasulfuron]
pest or weed control at 200 g/ha [1]: 97% | Fresh Weight [1]: 6.4 g | pest or weed control at 200 g/ha [2]: 12% | Fresh Weight [2]: 47.7 g | pest or weed control at 200 g/ha [3]: 89% | Fresh Weight [3]: 14.1 g | pest or weed control at 200 g/ha [4]: 6% | Fresh Weight [4]: 90.3 g
